Test results published in ChEMBL document CHEMBL6153137, “Design, Synthesis, and Biological Evaluation of Novel Orally Available Covalent CDK12/13 Dual Inhibitors for the Treatment of Tumors” (J Med Chem, 2025).
The source made the active and inactive calls. The rule behind the calls is not given here.

Legend:
[1] = Cmax in male Sprague-Dawley rat at 20 mg/kg, po administered once daily via gavage for 28 days; type: ADME, organism-based; details: in vivo, time 28 day
[2] = Half life in female Sprague-Dawley rat at 15 mg/kg, po administered once daily via gavage for 28 days; type: ADME, organism-based; details: in vivo, time 28 day
[3] = Toxicity against female Sprague-Dawley rat assessed as effect on blood urea nitrogen level at 7.5 to 30 mg/kg, po administered once daily via gavage for 28 days and measured on day 29; type: organism-based; details: in vivo, 696 h, dose 7.5-30 mg/kg, time 29 day
[4] = Toxicity against male Sprague-Dawley rat assessed as effect on hemoglobin level at 10 to 40 mg/kg, po administered once daily via gavage for 28 days and measured on day 29; type: organism-based; details: in vivo, 696 h, dose 10-40 mg/kg, time 29 day
[5] = AUC in Balb/c mouse xenografted with human SUM149PT cells at 30 mg/kg, po administered once daily via gavage; type: ADME, organism-based; details: in vivo
SUM149PT = experiment: Induction of DNA damage in human SUM149PT cells assessed as increase in gammaH2AX phosphorylation at 250 to 1000 nM incubated for 1 to 24 hrs by western blot analysis; type: functional, cell-based; details: dose 250-1000 nM, time lower 1.0 hrs, time upper […]
[6] = Cmax in female Sprague-Dawley rat at 7.5 mg/kg, po administered via gavage and measured on day 1; type: ADME, organism-based; details: in vivo, time 1 day
[7] = biological target: T1, Cyclin-dependent kinase 12/13 (Homo sapiens) (UniProt Q14004+Q9NYV4); experiment: Covalent inhibition of CDK12/13 in human SUM149PT cells assessed as reduction in level of phosphorylation of Ser2 on RNA Pol II CTD at 500 nM incubated for 12 hrs followed by drug wash-out and measured after 72 hrs by western blot analysis; type: cell-based
Mus musculus = experiment: In vivo inhibition of CDK12/13 in Balb/c mouse xenografted with human SUM149PT cells assessed as reduction in BRCA1 gene expression at 15 to 30 mg/kg, po administered once daily via gavage and measured at 4 hrs post-last drug dosage by qPCR analysis; type: functional, organism-based; details: dose 15-30 mg/kg
[8] = Toxicity against female Sprague-Dawley rat assessed as effect on red blood cells level at 7.5 to 30 mg/kg, po administered once daily via gavage for 28 days and measured on day 29; type: organism-based; details: in vivo, 696 h, dose 7.5-30 mg/kg, time 29 day
[9] = Cmax in male Sprague-Dawley rat at 40 mg/kg, po administered once daily via gavage for 28 days; type: ADME, organism-based; details: in vivo, time 28 day
[10] = biological target: Cyclin-Y/Cyclin-dependent kinase 16 (Homo sapiens) (UniProt Q00536+Q8ND76); experiment: Inhibition of human recombinant N-terminal GST-tagged CDK16/N-terminal GST-tagged Cyclin Y expressed in HEP Sf9 cells using ATP as substrate at 2 uM measured after 60 mins by ADP-Glo reagent based luminescence analysis
[11] = GSH reactivity assessed as half life to adduct formation at 10 uM by LC-MS/MS analysis; type: physicochemical
[12] = Cmax in Balb/c mouse xenografted with human SUM149PT cells at 30 mg/kg, po administered once daily via gavage; type: ADME, organism-based; details: in vivo
[13] = Half life in female Sprague-Dawley rat at 7.5 mg/kg, po administered via gavage and measured on day 1; type: ADME, organism-based; details: in vivo, time 1 day
[14] = Cmax in female Sprague-Dawley rat at 15 mg/kg, po administered once daily via gavage for 28 days; type: ADME, organism-based; details: in vivo, time 28 day
[15] = Toxicity against female Sprague-Dawley rat assessed as effect on sodium level in blood at 7.5 to 30 mg/kg, po administered once daily via gavage for 28 days and measured on day 29; type: organism-based; details: in vivo, 696 h, dose 7.5-30 mg/kg, time 29 day
Caco-2 = experiment: Antiproliferative activity against human Caco-2 cells assessed as reduction in cell viability incubated for 7 days by CellTiter-Glo reagent based luminescence analysis; type: functional; details: Caco-2, 168 h
[16] = biological target: T1, Cyclin-dependent kinase 12/13 (Homo sapiens); experiment: Inhibition of CDK12/13 in human SUM149PT cells assessed as reduction in BRCA1 gene expression at 500 nM incubated for 8 to 24 hrs by qPCR analysis; type: cell-based; details: time lower 8.0 hrs, time upper […]
CDK9/cyclin T1 = CDK9/cyclin T1 (Homo sapiens, UniProt P50750); experiment: Inhibition of human recombinant N-terminal GST-tagged CDK9/N-terminal GST-tagged and C-terminal 8X His-tagged Cyclin T1 expressed in HEP Sf9 cells using ATP as substrate measured after 60 mins by ADP-Glo reagent based luminescence assay
[17] = biological target: Cyclin-dependent kinase 5/CDK5 activator 1 (Homo sapiens) (UniProt Q00535+Q15078); experiment: Inhibition of human recombinant N-terminal GST-tagged CDK5/N-terminal GST-tagged p35NCK expressed in HEP Sf9 cells using ATP as substrate at 2 uM measured after 60 mins by ADP-Glo reagent based luminescence analysis
[18] = Toxicity against male Sprague-Dawley rat assessed as effect on AST level in blood at 10 to 40 mg/kg, po administered once daily via gavage for 28 days and measured on day 29; type: organism-based; details: in vivo, 696 h, dose 10-40 mg/kg, time 29 day
[19] = biological target: CDK12/Cyclin K (Homo sapiens) (UniProt O75909+Q9NYV4); experiment: Inhibition of N-terminal GST-tagged human recombinant CDK12/N-terminal FLAG and C-terminal 6X His-tagged Cyclin K expressed in HEP Sf9 cells using ATP as substrate at 2 uM measured after 60 mins by ADP-Glo reagent based luminescence assay
[20] = Cmax in Sprague-Dawley rat at 150 mg/kg, po measured for 24 hrs by LC-MS/MS analysis; type: ADME, organism-based; details: in vivo
[21] = Toxicity against male Sprague-Dawley rat assessed as effect on body weight at 10 to 20 mg/kg, po administered once daily via gavage for 28 days and measured twice a week; type: organism-based; details: in vivo, 672 h, dose 10-20 mg/kg, time 28 day
[22] = biological target: Cyclin-dependent kinase 13/Cyclin-K (Homo sapiens) (UniProt Q14004+O75909); experiment: Inhibition of human recombinant N-terminal GST-tagged CDK13/N-terminal FLAG and C-terminal His-tagged Cyclin K expressed in HEP Sf9 cells using ATP as substrate at 2 uM measured after 60 mins by ADP-Glo reagent based luminescence assay
[23] = AUC(0 to t) in female Sprague-Dawley rat at 7.5 mg/kg, po administered once daily via gavage for 28 days; type: ADME, organism-based; details: in vivo, 672 h, time 28 day
[24] = Half life in Sprague-Dawley rat at 150 mg/kg, po measured for 24 hrs by LC-MS/MS analysis; type: ADME, organism-based; details: in vivo
[25] = Half-life in Balb/c mouse xenografted with human MV4-11 cells at 15 mg/kg, po administered once daily via gavage; type: ADME, organism-based; details: in vivo
[26] = biological target: Voltage-gated inwardly rectifying potassium channel KCNH2 (Homo sapiens, UniProt Q12809); experiment: Inhibition of hERG expressed in CHO cells assessed as inhibition of channel current measured at holding potential of -80 mV by whole cell patch clamp analysis; type: toxicity, cell-based
[27] = AUC(0 to t) in female Sprague-Dawley rat at 15 mg/kg, po administered once daily via gavage for 28 days; type: ADME, organism-based; details: in vivo, 672 h, time 28 day
[28] = Toxicity against male Sprague-Dawley rat assessed as effect on monocytes level at 10 to 40 mg/kg, po administered once daily via gavage for 28 days and measured on day 29; type: organism-based; details: in vivo, 696 h, dose 10-40 mg/kg, time 29 day

Chain of CDK9/cyclin T1 (O60563 whole entry): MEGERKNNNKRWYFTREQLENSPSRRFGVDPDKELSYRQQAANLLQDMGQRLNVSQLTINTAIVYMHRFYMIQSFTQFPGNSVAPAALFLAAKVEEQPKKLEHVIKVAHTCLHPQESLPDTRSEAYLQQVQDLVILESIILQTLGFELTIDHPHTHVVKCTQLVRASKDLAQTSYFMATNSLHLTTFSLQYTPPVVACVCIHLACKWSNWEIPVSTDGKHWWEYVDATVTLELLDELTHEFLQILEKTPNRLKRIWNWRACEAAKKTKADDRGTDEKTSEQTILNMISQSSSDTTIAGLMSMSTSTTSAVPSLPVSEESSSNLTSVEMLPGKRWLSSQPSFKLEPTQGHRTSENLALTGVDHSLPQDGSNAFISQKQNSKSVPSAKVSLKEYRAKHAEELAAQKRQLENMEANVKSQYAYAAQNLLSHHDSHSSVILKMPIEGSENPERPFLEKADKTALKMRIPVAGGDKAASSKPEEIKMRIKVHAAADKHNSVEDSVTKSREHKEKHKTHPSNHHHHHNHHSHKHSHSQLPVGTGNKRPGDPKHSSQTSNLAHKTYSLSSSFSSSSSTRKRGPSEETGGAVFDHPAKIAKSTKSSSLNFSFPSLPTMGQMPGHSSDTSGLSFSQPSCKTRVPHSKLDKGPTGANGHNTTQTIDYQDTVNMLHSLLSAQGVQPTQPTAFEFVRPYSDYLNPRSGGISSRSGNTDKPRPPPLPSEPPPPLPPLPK
Chain of CDK9/cyclin T1 (P50750 whole entry): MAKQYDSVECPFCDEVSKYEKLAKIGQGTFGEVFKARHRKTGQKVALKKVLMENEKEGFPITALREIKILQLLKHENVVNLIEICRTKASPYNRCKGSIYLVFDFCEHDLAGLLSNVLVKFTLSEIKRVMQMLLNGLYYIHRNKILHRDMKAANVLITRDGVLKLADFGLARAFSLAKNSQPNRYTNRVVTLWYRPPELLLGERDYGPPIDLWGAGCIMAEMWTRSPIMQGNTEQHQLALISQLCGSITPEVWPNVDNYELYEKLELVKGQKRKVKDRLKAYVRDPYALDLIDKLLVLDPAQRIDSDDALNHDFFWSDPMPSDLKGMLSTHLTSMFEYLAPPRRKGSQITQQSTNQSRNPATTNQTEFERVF
Chain of Voltage-gated inwardly rectifying potassium channel KCNH2 (Q12809 whole entry): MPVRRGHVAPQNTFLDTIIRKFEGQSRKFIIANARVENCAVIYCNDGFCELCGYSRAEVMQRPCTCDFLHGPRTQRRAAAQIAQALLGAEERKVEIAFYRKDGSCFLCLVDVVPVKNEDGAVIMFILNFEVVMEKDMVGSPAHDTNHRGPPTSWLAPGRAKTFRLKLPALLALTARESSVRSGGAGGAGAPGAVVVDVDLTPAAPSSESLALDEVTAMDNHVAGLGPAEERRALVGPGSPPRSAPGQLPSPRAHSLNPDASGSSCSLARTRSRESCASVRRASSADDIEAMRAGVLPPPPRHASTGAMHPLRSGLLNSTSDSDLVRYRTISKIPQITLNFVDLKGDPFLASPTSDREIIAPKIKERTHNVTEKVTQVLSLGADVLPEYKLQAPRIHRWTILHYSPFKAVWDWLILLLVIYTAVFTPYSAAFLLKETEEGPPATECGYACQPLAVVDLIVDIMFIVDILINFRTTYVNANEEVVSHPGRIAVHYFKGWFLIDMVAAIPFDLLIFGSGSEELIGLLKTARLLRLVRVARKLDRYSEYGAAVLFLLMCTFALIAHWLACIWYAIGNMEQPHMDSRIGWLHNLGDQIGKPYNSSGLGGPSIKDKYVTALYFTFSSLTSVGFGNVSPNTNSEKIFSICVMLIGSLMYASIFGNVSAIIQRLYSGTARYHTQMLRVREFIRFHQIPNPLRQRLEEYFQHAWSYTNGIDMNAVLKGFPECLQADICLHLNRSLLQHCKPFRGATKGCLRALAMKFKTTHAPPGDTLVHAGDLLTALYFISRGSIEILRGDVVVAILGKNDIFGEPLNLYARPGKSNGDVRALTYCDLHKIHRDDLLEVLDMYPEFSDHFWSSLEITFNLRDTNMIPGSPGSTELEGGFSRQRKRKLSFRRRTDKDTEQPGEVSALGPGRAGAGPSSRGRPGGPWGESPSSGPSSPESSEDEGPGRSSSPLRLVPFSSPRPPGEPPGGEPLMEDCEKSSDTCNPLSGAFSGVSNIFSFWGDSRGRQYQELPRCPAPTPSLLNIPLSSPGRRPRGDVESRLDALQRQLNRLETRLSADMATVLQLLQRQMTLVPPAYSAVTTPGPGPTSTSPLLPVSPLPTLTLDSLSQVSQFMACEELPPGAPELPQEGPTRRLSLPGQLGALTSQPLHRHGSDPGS
Chain of Cyclin-dependent kinase 5/CDK5 activator 1 (Homo sapiens) (Q00535 whole entry): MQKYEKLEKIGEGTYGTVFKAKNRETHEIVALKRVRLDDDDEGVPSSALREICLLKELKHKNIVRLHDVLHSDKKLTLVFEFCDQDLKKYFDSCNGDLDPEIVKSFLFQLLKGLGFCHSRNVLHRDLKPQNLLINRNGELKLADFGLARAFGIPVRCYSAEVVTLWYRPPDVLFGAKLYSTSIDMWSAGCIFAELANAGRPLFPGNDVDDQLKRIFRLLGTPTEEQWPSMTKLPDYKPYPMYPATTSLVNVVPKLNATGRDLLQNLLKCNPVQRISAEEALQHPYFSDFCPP
Chain of Cyclin-dependent kinase 5/CDK5 activator 1 (Homo sapiens) (Q15078 99-307 partner limits assumed): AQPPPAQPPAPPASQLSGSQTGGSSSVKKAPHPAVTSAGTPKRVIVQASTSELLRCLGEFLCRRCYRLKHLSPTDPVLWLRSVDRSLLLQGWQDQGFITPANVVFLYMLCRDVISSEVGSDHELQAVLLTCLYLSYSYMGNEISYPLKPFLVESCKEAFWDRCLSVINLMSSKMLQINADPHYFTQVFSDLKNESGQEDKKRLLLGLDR
Chain of CDK12/Cyclin K (Homo sapiens) (O75909 whole entry, looked up): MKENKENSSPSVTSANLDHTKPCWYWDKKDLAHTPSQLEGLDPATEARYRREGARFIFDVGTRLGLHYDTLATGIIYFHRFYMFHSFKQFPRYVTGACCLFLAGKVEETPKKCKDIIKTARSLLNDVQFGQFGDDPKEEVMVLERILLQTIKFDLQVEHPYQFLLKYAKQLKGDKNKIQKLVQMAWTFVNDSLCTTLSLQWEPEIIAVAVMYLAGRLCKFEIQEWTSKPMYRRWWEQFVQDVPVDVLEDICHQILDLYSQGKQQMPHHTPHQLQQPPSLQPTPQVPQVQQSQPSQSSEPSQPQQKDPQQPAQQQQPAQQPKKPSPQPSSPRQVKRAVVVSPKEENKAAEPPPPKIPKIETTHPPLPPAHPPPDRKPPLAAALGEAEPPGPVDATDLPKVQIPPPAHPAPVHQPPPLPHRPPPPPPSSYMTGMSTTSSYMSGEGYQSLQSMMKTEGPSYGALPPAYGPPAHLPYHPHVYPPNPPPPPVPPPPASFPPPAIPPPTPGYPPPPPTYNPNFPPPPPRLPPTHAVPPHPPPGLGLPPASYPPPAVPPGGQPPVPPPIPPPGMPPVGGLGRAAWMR
Chain of CDK12/Cyclin K (Homo sapiens) (Q9NYV4 whole entry, looked up): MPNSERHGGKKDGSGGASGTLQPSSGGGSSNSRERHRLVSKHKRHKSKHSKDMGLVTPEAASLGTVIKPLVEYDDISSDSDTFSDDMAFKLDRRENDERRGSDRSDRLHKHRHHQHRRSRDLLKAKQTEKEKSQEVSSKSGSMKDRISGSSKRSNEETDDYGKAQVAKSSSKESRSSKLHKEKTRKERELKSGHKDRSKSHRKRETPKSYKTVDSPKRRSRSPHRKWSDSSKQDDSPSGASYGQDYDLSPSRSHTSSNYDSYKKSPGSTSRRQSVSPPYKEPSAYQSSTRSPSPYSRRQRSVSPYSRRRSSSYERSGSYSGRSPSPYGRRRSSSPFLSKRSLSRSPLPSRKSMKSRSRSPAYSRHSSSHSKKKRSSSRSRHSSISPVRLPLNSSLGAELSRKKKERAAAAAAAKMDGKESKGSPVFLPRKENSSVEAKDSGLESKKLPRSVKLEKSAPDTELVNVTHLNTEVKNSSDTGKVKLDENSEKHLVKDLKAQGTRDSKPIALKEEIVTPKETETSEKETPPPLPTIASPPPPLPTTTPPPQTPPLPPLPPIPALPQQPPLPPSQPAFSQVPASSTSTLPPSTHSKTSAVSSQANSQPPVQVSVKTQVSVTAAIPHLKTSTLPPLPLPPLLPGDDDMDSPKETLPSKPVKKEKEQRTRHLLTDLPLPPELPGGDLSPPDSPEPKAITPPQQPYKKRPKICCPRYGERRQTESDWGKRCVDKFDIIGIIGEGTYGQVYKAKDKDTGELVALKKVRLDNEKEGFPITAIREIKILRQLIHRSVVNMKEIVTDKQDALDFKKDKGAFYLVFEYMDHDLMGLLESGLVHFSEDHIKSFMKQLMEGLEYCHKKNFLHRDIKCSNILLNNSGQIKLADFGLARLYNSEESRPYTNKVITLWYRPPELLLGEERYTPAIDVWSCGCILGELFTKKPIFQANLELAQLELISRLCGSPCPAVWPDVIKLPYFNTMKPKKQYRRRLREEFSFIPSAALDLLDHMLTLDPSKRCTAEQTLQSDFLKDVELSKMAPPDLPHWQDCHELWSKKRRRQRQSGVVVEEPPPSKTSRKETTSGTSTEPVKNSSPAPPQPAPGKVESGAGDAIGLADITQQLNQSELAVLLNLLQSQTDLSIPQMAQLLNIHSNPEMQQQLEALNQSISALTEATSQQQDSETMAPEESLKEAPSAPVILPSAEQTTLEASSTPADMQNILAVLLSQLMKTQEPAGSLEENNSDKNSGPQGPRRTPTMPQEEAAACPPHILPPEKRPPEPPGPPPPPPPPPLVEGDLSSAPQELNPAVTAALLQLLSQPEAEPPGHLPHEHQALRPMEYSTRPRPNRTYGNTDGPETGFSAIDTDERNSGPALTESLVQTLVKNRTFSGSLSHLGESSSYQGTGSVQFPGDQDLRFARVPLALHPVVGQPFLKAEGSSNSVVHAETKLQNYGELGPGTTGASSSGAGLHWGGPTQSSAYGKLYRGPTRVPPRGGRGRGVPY

With C=CC(=O)N1CCc2c(ncnc2N2CC[C@@H](Nc3ncc(Cl)c(OC)n3)C2)C1 the Cmax [1] was 793 ng/mL, the half-life [2] was 2.3 h and the Activity [3] was “Non-toxic”. The Activity [4] was “Non-toxic”, the AUC [5] was 2690 ng·h/mL and the Activity (SUM149PT) was “Active”. The Cmax [6] was 870 ng/mL, the inhibition [7] was “Active” and the inhibition (Mus musculus) was “Active”. For the same molecule, the Activity [8] was “Non-toxic”, the Cmax [9] was 2410 ng/mL and the inhibition [10] was 64%. It also gave a t1/2 [11] of 1.38 h, a Cmax [12] of 1980 ng/mL and a half-life [13] of 2 h. The Cmax [14] was 1800 ng/mL, the Activity [15] was “Non-toxic” and the IC50 (Caco-2) was 122 nM. The inhibition [16] was “Active”, the IC50 (CDK9/cyclin T1) was 641 nM and the inhibition [17] was 62%. For the same molecule, the Activity [18] was “Non-toxic”, the inhibition [19] was 97% and the Cmax [20] was 3760 ng/mL. The Activity [21] was “Non-toxic”, the inhibition [22] was 83% and the AUCt [23] was 1760 ng·h/mL. For the same molecule, the half-life [24] was 21.2 h, the half-life [25] was 4.09 h and the IC50 [26] was greater than 30000 nM. The AUCt [27] was 3220 ng·h/mL and the Activity [28] was “Non-toxic”.
